Measured values published in patent US10988465B2, “CXCR4 inhibitors and uses thereof” (X4 Pharmaceuticals, Inc., priority 2016, dated 2021).

Tests used:
[1] = molecular target: T1, CXCR-4 transfected U87 cell line (U87.CXCR4) (Homo sapiens, UniProt P61073); assay: Intracellular CXCL-12-induced calcium mobilization assay (FLIPR); type: cell-based; conditions: U87.CXCR4 cells; CXCL-12 25-50 ng/mL; compound added 15 min before; read-out: IC50 CXCL-12 Ca^2+ flux U87.CXCR4+
T1 construct: expressed in transfected cells; host or cells: U87 (U87.CXCR4)
In short: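 U87 cells stably expressing human CXCR4, loaded with Fluo-2 AM (4 μM final) for 45 min at 37 °C in HBSS/20 mM HEPES/0.2% BSA, pH 7.4. Calcium flux triggered by CXCL-12 (25-50 ng/mL) was followed by FLIPR fluorescence over time at 37 °C.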

[2] = molecular target: T2, Jurkat cells expressing CXCR4 (Homo sapiens, UniProt P61073); assay: Chemokine (CXCL12-AF647) binding inhibition assay; conditions: CXCL12-AF647 25 ng/mL, read-out: IC50 CXCL-12 binding Jurkat
T2 construct: endogenous in cells; host or cells: Jurkat
In short: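 Cells in HBSS, 20 mM HEPES, 0.2% BSA, pH 7.4, preincubated 15 min at room temperature with compound, then 25 ng/mL CXCL12-AF647 for 30 min. After washing and paraformaldehyde fixation, bound ligand read by flow cytometry; percent inhibition calculated from MFI relative to unlabeled and ligand-only controls.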

[3] = in vitro; conditions: human, Caco-2, pH 7.4
In short: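 Caco-2 monolayers, checked by TEER with Lucifer yellow as marker, were dosed with 10 μM compound in HBSS pH 7.4 in A-to-B and B-to-A directions. Incubation was 90 min at 37° C, in duplicate. Samples were quantified by LC-MS/MS and Papp calculated.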

[4] = Mouse brain uptake assay (MBUA), 3 mg/kg IV, 0-1 h, 3 time points; type: in vivo, male CD1 mice; conditions: for Kp / clearance / half-life / AUC(0-t) / Kp uu: male; for Kp: CD1, mouse, brain/plasma, iv, 3 mg/kg; for clearance / half-life: CD1, plasma, 3 time points; for clearance / half-life / AUC(0-t) / Kp uu / fraction unbound: mouse; for clearance / half-life / AUC(0-t) / Kp uu: 3 mg/kg IV, 0-1 h; for half-life: read-out: t½ (converted); for AUC(0-t) / Kp uu: CD1; for Kp uu: unbound brain/unbound plasma, read-out: Kp, uu
Method: (§1) Example 38: Pharmacokinetics and Brain Penetration Experiment to Determine Brain and Plasma Concentrations of Compounds after IV Administration to Male CD1 Mice
(§2) The study design (9 animals) consisted of administrating the drug (IV: 3 mg/kg (5 mL/kg) via tail vein injection) and collecting samples at terminal bleeding for plasma and brain at 0.083, 0.5 and 1 h. The IV dosing solution was prepared in 50 mM citrate buffer (pH 4.0) at 0.6 mg/mL. The blood collection was performed as follows: the animal was restrained manually and approximately 150 μL blood/time point was collected into a dipotassium EDTA tube via retro orbital puncture under anesthesia with isoflurane. The blood sample was put on ice and centrifuged to obtain a plasma sample (2000 g, 5 min under 4° C.) within 15 minutes. The brain collection was performed as follows: a mid-line incision was made in the animal's scalp and the skin was retracted. Using small bone cutters and rongeurs, the skull overlying the brain was removed. The brain was removed using a spatula and the brain rinsed with cold saline. The brain was placed in screw-top tubes, and the tubes were stored at −70° C. until analysis.
(§3) An aliquot of 30 μL sample was added to 150 μL MeCN containing 50 ng/mL IS (Dexamethasone). The mixture was vortexed for 5 min and centrifuged at 14,000 rpm for 5 min. An aliquot of 5 μL supernatant was injected for LC-MS/MS analysis.
(§4) An aliquot of 30 μL brain homogenate (brain:PBS=1:3, w/v) sample was added to 150 μL IS in MeCN (Dexamethasone, 50 ng/mL). The mixture was vortexed for 5 min and centrifuged at 14,000 rpm for 5 min. An aliquot of 5 μL supernatant was injected for LC-MS/MS analysis.
(§5) The sample analysis was performed on LCMS/MS-003 (API4000, triple quadruple) under the following conditions: positive ion, ESI, MRM detection using dexamethasone as internal standard. HPLC conditions: mobile phase A: H2O (0.025% formic acid (FA) with 1 mM NH4OAc); mobile phase B: MeOH (0.025% FA with 1 mM NH4OAc) on Waters X-Bridge C18 (2.1×50 mm, 2.5 μm) column at 60° C.

[5] = Mouse brain uptake assay (MBUA), 3 mg/kg IV, 0-24 h, 4 time points; type: in vivo, male CD1 mice; conditions: for Kp / clearance / half-life / AUC(0-t) / Kp uu: male; for Kp: CD1, mouse, brain/plasma, iv, 3 mg/kg; for clearance / half-life: CD1, plasma, 4 time points; for clearance / half-life / AUC(0-t) / Kp uu / fraction unbound: mouse; for clearance / half-life / AUC(0-t) / Kp uu: 3 mg/kg IV, 0-24 h; for half-life: read-out: t½ (converted); for AUC(0-t) / Kp uu: CD1; for Kp uu: unbound brain/unbound plasma
Method: as §1, §2, §3, §4, §5
A similar experiment was performed with 4 time points taken from 0-24 h.

[6] = fraction unbound to brain proteins, read-out: Fu (b) %
[7] = fraction unbound to plasma proteins, read-out: Fu (p) %

T2 sequence (P61073 whole entry): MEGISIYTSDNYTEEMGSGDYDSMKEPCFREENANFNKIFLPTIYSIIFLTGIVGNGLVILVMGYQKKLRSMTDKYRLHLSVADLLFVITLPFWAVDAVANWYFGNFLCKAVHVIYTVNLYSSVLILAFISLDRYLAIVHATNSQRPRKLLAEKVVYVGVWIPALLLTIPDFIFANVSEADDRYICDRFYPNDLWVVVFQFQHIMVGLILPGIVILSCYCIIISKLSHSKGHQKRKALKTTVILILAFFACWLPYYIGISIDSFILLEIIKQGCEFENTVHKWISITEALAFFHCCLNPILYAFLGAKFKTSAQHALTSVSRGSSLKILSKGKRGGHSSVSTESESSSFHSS
T1 sequence (P61073 whole entry): as above

Row | Structure (SMILES) | IC50 [1] [nM] | IC50 [2] [nM] | Papp A→B at 90 min, 10 μM [3] [×10⁻⁶ cm/s] | Papp B→A at 90 min, 10 μM [3] [×10⁻⁶ cm/s] | efflux ratio at 90 min, 10 μM [3] | Kp [4] | clearance [4] [mL/min/kg] | half-life [4] [min] | AUC(0-t) ([4]; brain, read-out: AUClast (b)) [ng·h/mL] | AUC(0-t) ([4]; plasma, read-out: AUClast (P)) [ng·h/mL] | Kp uu [4] | fraction unbound [4, 6] | Kp [5] | clearance [5] [mL/min/kg] | half-life [5] [min] | AUC(0-t) ([5]; brain, read-out: AUClast (b)) [ng·h/mL] | AUC(0-t) ([5]; plasma, read-out: AUClast (P)) [ng·h/mL] | Kp uu [5] | fraction unbound [5, 6] | fraction unbound [5, 7] | other results
1 | CN1CCN(c2cccc3nc([C@H]4CCC[C@@H](c5ncccc5Cl)N4C)[nH]c23)CC1 [I-9, 2-((2R,6S)-6-(3-chloropyridin-2-yl)-1-methylpiperidin-2-yl)-7-(4-methylpiperazin-1-yl)-1H-benzo[d]imidazole] | 100 to 1000 | 0.01 to 100 | 10 to 30 | 10 to 30 | 0.1 to 10 | 2.51 | 77.2 | 16 | 1510 | 601 | 0.73 | 0.016 |  |  |  |  |  |  |  |  | fraction unbound [4, 7]: 0.055
2 | Cc1cccnc1[C@@H]1CCC[C@H](c2nc3cccc(N4CCN(C5CC5)CC4)c3[nH]2)N1C [I-76] | 0.01 to 100 | 0.01 to 100 | > 30 | 10 to 30 | 0.1 to 10 |  |  |  |  |  |  |  | 57.2 | 46.5 | 11.6 | 59800 | 1050 |  |  |  | 
3 | Cc1cccnc1[C@@H]1CCC[C@H](c2nc3ccccc3n2CC2CCN(C)CC2)N1C [I-15, 2-((2R,6S)-1-methyl-6-(3-methylpyridin-2-yl)piperidin-2-yl)-1-((1-methylpiperidin-4-yl)methyl)-1H-benzo[d]imidazole] | 0.01 to 100 | 0.01 to 100 | 0.1 to 10 | 10 to 30 | 0.1 to 10 | 0.34 | 282 | 17.8 | 55.3 | 161 | 0.02 | 0.004 |  |  |  |  |  |  |  |  | fraction unbound [4, 7]: 0.076
4 | Cc1cccnc1[C@@H]1CCC[C@H](c2nc3cccc(N4CCN(C)C5(CC5)C4)c3[nH]2)N1C [I-108] | 100 to 1000 | 0.01 to 100 | > 30 | 10 to 30 | 0.1 to 10 |  |  |  |  |  |  |  | 55.8 | 115 | 15.1 | 22800 | 408 |  |  |  | 
5 | CN1CCC(n2ccnc2[C@H]2CCC[C@@H](c3ncccc3Cl)N2C)CC1 [I-170] | ≥ 1000 | 0.01 to 100 | 10 to 30 | 10 to 30 | 0.1 to 10 |  |  |  |  |  |  |  | 7.23 | 56 | 229 | 6410 | 887 |  |  |  | 
6 | Cc1cccnc1[C@@H]1CCC[C@H](c2nc3cccc(N4CCN(C)C5(CC5)C4)c3[nH]2)N1 [I-132] | 0.01 to 100 | 0.01 to 100 | 10 to 30 | 10 to 30 | 0.1 to 10 | 1.66 | 19.7 | 185 | 539 | 323 | 0.54 | 0.01 |  |  |  |  |  |  |  |  | fraction unbound [4, 7]: 0.031
7 | Cc1c(Cl)ccnc1[C@@H]1CCC[C@H](c2nc3cccc(N4CCN(C)CC4)c3[nH]2)N1C [I-82] | 0.01 to 100 | 0.01 to 100 | 10 to 30 | 10 to 30 | 0.1 to 10 |  |  |  |  |  |  |  | 4.27 | 172 | 16.3 | 1150 | 269 | 0.65 | 0.005 | 0.033 | 
8 | COc1ccnc([C@@H]2CCC[C@H](c3nc4cccc(N5CCN(C)CC5)c4[nH]3)N2C)c1C [I-81] | 0.01 to 100 | 0.01 to 100 | 0.1 to 10 | 0.1 to 10 | 0.1 to 10 |  |  |  |  |  |  |  | 7.96 | 33.3 | 286 | 11700 | 1470 | 1.01 | 0.019 | 0.149 | 
9 | Cc1cccnc1[C@@H]1CCC[C@H](c2nc3cccc(N4C5CCC4CN(C)C5)c3[nH]2)N1 [I-120] | 0.01 to 100 | 0.01 to 100 | 10 to 30 | 10 to 30 | 0.1 to 10 |  |  |  |  |  |  |  | 1.05 |  |  | 5110 | 4820 | 0.07 | 0.014 | 0.201 | 
10 | Cc1cccnc1[C@@H]1CCC[C@H](c2nc3cccc(N4CC5CCC(C4)N5C)c3[nH]2)N1C [I-56] | 0.01 to 100 | 0.01 to 100 | 10 to 30 | 10 to 30 | 0.1 to 10 |  |  |  |  |  |  |  | 1.94 | 32.3 | 184 | 3000 | 1540 | 0.35 | 0.013 | 0.073 | 
